Reference: the supplement of paper PMC11208160

Assay: recombinant UMI read abundance after kanamycin selection (control-corrected) (log10(CPM+1)); higher = more efficient recombination; extreme values may be limits of the assay; sequences stand for … in AGTGCAGAGAAAATCGGCCAGTTTTCTCTGCCTGCAGTCCGCATGCCGTGGGACCCCTTGGGTTCTAACCTGTTGCCTAGATTTATGCAGCGGACTGCCTTTCTCCCAAAGTGATAAACCGG…AGGTTGGTTTCACT; site = the 11-nt donor
How it was run: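 Reported values are log10(CPM+1) from a pooled Escherichia coli screen of donor and donor-binding-loop pairs for the IS621 bridge recombinase. Selection used IPTG (0.07 mM) plus kanamycin, against unselected plating, each in two replicates. Recombinant UMIs were amplified across the donor–target junction, sequenced, converted to CPM, averaged over replicates and scaled by control-derived factors.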
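Further: IS621 bridge recombinase in Escherichia coli cells against a fixed T5 target plasmid.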

Sequence	recombinant UMI read abundance (log10)
AGTACACCATGGACCGGTTTTCCCGGTAATCCGTATTTGAC (site GGTACACCTGT)	0
AGTACACCATGGACCGGTTTTCCCGGTAATCCGTATTTGAC (site TGTACACCTGT)	0
AGTAGATCATGGACCGGTTTTCCCGGTAATCCGTATTTGGA (site AGTAGATCTTC)	1.45
AGTAGGTCATGGACCGGTTTTCCCGGTAATCCGTATTTGAA (site AGTAGGTCTTT)	1.07
AGTCACTCATGGACCGGTTTTCCCGGTAATCCGTATTTGCA (site AGTCACTCTTG)	2.8
AGTCAGCCATGGACCGGTTTTCCCGGTAATCCGTATTTGGA (site AGTCAGCCTTC)	0.0114
AGTCCACCATGGACCGGTTTTCCCGGTAATCCGTATTTGGG (site AGTCCACCTCC)	0.00962
AGTCGGTCATGGACCGGTTTTCCCGGTAATCCGTATTTGGC (site AGTCGGTCTGC)	0
AGTCTGACATGGACCGGTTTTCCCGGTAATCCGTATTTGCT (site AGTCTGACTAG)	1.87
AGTGCCACATGGACCGGTTTTCCCGGTAATCCGTATTTGAG (site AGTGCCACTCT)	0.4
AGTGCCCCATGGACCGGTTTTCCCGGTAATCCGTATTTGCT (site AGTGCCCCTAG)	0.594
AGTGCTCCATGGACCGGTTTTCCCGGTAATCCGTATTTGAA (site AGTGCTCCTTT)	0.416
AGTTACACATGGACCGGTTTTCCCGGTAATCCGTATTTGCC (site AGTTACACTGG)	2.42
AGTTATGCATGGACCGGTTTTCCCGGTAATCCGTATTTGGA (site AATTATGCTTC)	0.159
AGTTATGCATGGACCGGTTTTCCCGGTAATCCGTATTTGGA (site ACTTATGCTTC)	0.849
AGTTATGCATGGACCGGTTTTCCCGGTAATCCGTATTTGGA (site AGTTATGCTTC)	0.923
AGTTATGCATGGACCGGTTTTCCCGGTAATCCGTATTTGGA (site ATTTATGCTTC)	0.709
AGTTGTACATGGACCGGTTTTCCCGGTAATCCGTATTTGGT (site AGTTGTACTAC)	0.56
AGTTGTCCATGGACCGGTTTTCCCGGTAATCCGTATTTGGG (site AGTTGTCCTCC)	0.0152
AGTTGTGCATGGACCGGTTTTCCCGGTAATCCGTATTTGAA (site AGTTGTGCTTT)	0.535
AGTTGTTCATGGACCGGTTTTCCCGGTAATCCGTATTTGGC (site AGTTGTTCTGC)	1.34
AGTTTGGCATGGACCGGTTTTCCCGGTAATCCGTATTTGCT (site AGTTTGGCTAG)	0.0222
AGTTTGGCATGGACCGGTTTTCCCGGTAATCCGTATTTGCT (site CGTTTGGCTAG)	0
AGTTTGGCATGGACCGGTTTTCCCGGTAATCCGTATTTGCT (site GGTTTGGCTAG)	0
AGTTTGGCATGGACCGGTTTTCCCGGTAATCCGTATTTGCT (site TGTTTGGCTAG)	0.0837

Sequence	recombinant UMI read abundance (log10)
ATAAAGGCATGGACCGGTTTTCCCGGTAATCCGTATTTGGG (site ATAAAGGCTCC)	1.03
ATAACTCCATGGACCGGTTTTCCCGGTAATCCGTATTTGCC (site ATAACTCCTGG)	1.64
ATAAGCACATGGACCGGTTTTCCCGGTAATCCGTATTTGAT (site ATAAGCACTAT)	2.23
ATAAGCCCATGGACCGGTTTTCCCGGTAATCCGTATTTGAC (site ATAAGACCTGT)	0
ATAAGCCCATGGACCGGTTTTCCCGGTAATCCGTATTTGAC (site ATAAGCCCTGT)	2.3
ATAAGCCCATGGACCGGTTTTCCCGGTAATCCGTATTTGAC (site ATAAGGCCTGT)	0.528
ATAAGCCCATGGACCGGTTTTCCCGGTAATCCGTATTTGAC (site ATAAGTCCTGT)	0.889
ATAAGGCCATGGACCGGTTTTCCCGGTAATCCGTATTTGTC (site ATAAGGCCTGA)	1.94
ATAAGGCCATGGACCGGTTTTCCCGGTAATCCGTATTTGTC (site ATAAGGCCTGC)	0
ATAAGGCCATGGACCGGTTTTCCCGGTAATCCGTATTTGTC (site ATAAGGCCTGG)	2.46
ATAAGGCCATGGACCGGTTTTCCCGGTAATCCGTATTTGTC (site ATAAGGCCTGT)	0
ATAAGGTCATGGACCGGTTTTCCCGGTAATCCGTATTTGCA (site ATAAGGTCTTG)	2.96
ATACAAGCATGGACCGGTTTTCCCGGTAATCCGTATTTGAG (site ATACAAGCTCT)	2.31
ATACAAGCATGGACCGGTTTTCCCGGTAATCCGTATTTGAG (site ATCCAAGCTCT)	0.803
ATACAAGCATGGACCGGTTTTCCCGGTAATCCGTATTTGAG (site ATGCAAGCTCT)	0.923
ATACAAGCATGGACCGGTTTTCCCGGTAATCCGTATTTGAG (site ATTCAAGCTCT)	0.673
ATACATGCATGGACCGGTTTTCCCGGTAATCCGTATTTGCT (site ATACATGCTAG)	2.75
ATACGGCCATGGACCGGTTTTCCCGGTAATCCGTATTTGAC (site ATAAGGCCTGT)	0
ATACGGCCATGGACCGGTTTTCCCGGTAATCCGTATTTGAC (site ATACGGCCTGT)	0
ATACGGCCATGGACCGGTTTTCCCGGTAATCCGTATTTGAC (site ATAGGGCCTGT)	0
ATACGGCCATGGACCGGTTTTCCCGGTAATCCGTATTTGAC (site ATATGGCCTGT)	0
ATACTAACATGGACCGGTTTTCCCGGTAATCCGTATTTGGA (site ATACTAACTTC)	1.2
ATACTAACATGGACCGGTTTTCCCGGTAATCCGTATTTGGA (site CTACTAACTTC)	0.853
ATACTAACATGGACCGGTTTTCCCGGTAATCCGTATTTGGA (site GTACTAACTTC)	0.275
ATACTAACATGGACCGGTTTTCCCGGTAATCCGTATTTGGA (site TTACTAACTTC)	2.05

Sequence	recombinant UMI read abundance (log10)
ATACTGGCATGGACCGGTTTTCCCGGTAATCCGTATTTGTT (site ATACTGGCTAA)	0.589
ATAGACTCATGGACCGGTTTTCCCGGTAATCCGTATTTGGT (site ATAGACTCTAC)	2.79
ATAGCATCATGGACCGGTTTTCCCGGTAATCCGTATTTGAC (site ATAGCATCTGT)	3.53
ATAGCATCATGGACCGGTTTTCCCGGTAATCCGTATTTGAC (site CTAGTATCTGT)	1.8
ATAGGAGCATGGACCGGTTTTCCCGGTAATCCGTATTTGGC (site ATAGGAGCTGC)	2.91
ATAGTATCATGGACCGGTTTTCCCGGTAATCCGTATTTGCG (site ACAGTATCTTG)	1.46
ATAGTATCATGGACCGGTTTTCCCGGTAATCCGTATTTGCG (site ATAGTATCTCG)	3.07
ATAGTTTCATGGACCGGTTTTCCCGGTAATCCGTATTTGAC (site ATAGTTTCTGT)	2.62
ATAGTTTCATGGACCGGTTTTCCCGGTAATCCGTATTTGAC (site CTAGTATCTGT)	2.45
ATATCGGCATGGACCGGTTTTCCCGGTAATCCGTATTTGGT (site ATATCGGCTAC)	0.889
ATATGACCATGGACCGGTTTTCCCGGTAATCCGTATTTGAC (site ATATGACCTGT)	0
ATATGATCATGGACCGGTTTTCCCGGTAATCCGTATTTGGG (site ATATGATCTCC)	1.26
ATATGGCCATGGACCGGTTTTCCCGGTAATCCGTATTTGAC (site ATAAGGCCTGT)	0
ATATGGCCATGGACCGGTTTTCCCGGTAATCCGTATTTGAC (site ATACGGCCTGT)	0
ATATGGCCATGGACCGGTTTTCCCGGTAATCCGTATTTGAC (site ATAGGGCCTGT)	0
ATATGGCCATGGACCGGTTTTCCCGGTAATCCGTATTTGAC (site ATATGGCCTGT)	0
ATATTCGCATGGACCGGTTTTCCCGGTAATCCGTATTTGCT (site ATATTCGCTAG)	2.58
ATCAAAGCATGGACCGGTTTTCCCGGTAATCCGTATTTGAG (site ATCAAAGCTCT)	2.17
ATCAAAGCATGGACCGGTTTTCCCGGTAATCCGTATTTGAG (site ATCCAAGCTCT)	0.889
ATCAAAGCATGGACCGGTTTTCCCGGTAATCCGTATTTGAG (site ATCGAAGCTCT)	0.781
ATCAAAGCATGGACCGGTTTTCCCGGTAATCCGTATTTGAG (site ATCTAAGCTCT)	0.855
ATCACATCATGGACCGGTTTTCCCGGTAATCCGTATTTGCG (site ATCACATCTCG)	2.31
ATCAGACCATGGACCGGTTTTCCCGGTAATCCGTATTTGCA (site ATCAGACCTTG)	0
ATCAGGCCATGGACCGGTTTTCCCGGTAATCCGTATTTGAC (site ATAAGGCCTGT)	0
ATCAGGCCATGGACCGGTTTTCCCGGTAATCCGTATTTGAC (site ATCAGGCCTGT)	0
